Biological target: T1, MCMJR1 (Methanoculleus marisnigri, UniProt A3CWV0)
T1 construct: gene Memar_1924; full-length; N-terminal His6-SUMO fusion cut off with ULP1; expressed in E. coli Rosetta (DE3) pLysS; detergent-purified; catalytic D162 and D220; eight predicted TMDs
T1 sequence (A3CWV0 1-301): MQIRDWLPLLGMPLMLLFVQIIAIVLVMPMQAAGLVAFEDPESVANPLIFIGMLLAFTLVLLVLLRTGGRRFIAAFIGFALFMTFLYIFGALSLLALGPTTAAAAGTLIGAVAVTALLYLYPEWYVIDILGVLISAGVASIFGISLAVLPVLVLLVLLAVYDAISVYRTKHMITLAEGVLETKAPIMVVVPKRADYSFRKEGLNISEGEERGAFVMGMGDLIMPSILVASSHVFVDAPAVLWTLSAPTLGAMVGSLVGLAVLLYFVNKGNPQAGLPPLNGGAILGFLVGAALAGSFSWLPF
Assay: cleavage of Gurken-TMD (MBP chimera), anti-MBP western blot with densitometry
Assay type: biochemical
Settings: transition-state analog; 0.8 µM enzyme, 2 h pre-incubation at 37 °C, 0.8 µM Gurken-TMD, 8 h; 31C at 10-100 µM; IC50 not given

complete inhibition of activity: ~ 100 µM
Compound: COC(=O)C(NC(=O)C(CC(C)C)NC(=O)N(Cc1ccccc1)CC(O)C(Cc1ccccc1)NC(=O)OC(C)(C)C)C(C)C (stereo not shown) [31C]

From PMC2947513, “Identification of an Archaeal Presenilin-Like Intramembrane Protease” (PLoS ONE, 2010)
